Data on 13 molecules can be found in PubChem BioAssay (NCI).

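Dose response: 5 concentrations. Exposure: 48 h. Format: 96-well plates. Endpoint: linear interpolation; highest concentration if not reached. TGI denotes the concentration required for complete inhibition of growth.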 Where a SMILES comes first, the peptide text is derived from it. The star is where a group is joined. Cbz = O=C(OCc1ccccc1)*; Boc = CC(C)(C)OC(=O)*; Bn = c1ccc(C*)cc1 A value given as a limit tells only on which side of the number the result lay.

Among the test systems are HL-60(TB) leukemia; MDA-MB-231 breast; SK-MEL-5 melanoma; RXF 393 renal; SF-539 CNS; HCT-116 colon; KM12 colon; HCT-15 colon; SF-268 CNS; CAKI-1 renal; ACHN renal; EKVX NSCLC; UO-31 renal; SN12C renal; COLO 205 colon; K-562 leukemia; OVCAR-3 ovarian; LOX IMVI melanoma.
Experiment in all cases: growth of human tumour cells (NCI), 48 h

Consider `COc1ccc(C(=O)/C=C/c2ccc(OCCSCCCCCCCCCCSCCOc3ccc(/C=C/C(=O)c4ccc(OC)cc4)cc3)cc2)cc1`, for which the TGI in the experiment on HL-60(TB) leukemia, with MDA-MB-231 breast, in the experiment on SK-MEL-5 melanoma, in the experiment on RXF 393 renal, in the experiment on SF-539 CNS and in the experiment on HCT-116 colon was over 100 µM throughout. For the same molecule, the TGI in the experiment with KM12 colon, with HCT-15 colon, in the experiment with SF-268 CNS, in the experiment on CAKI-1 renal, in the experiment with ACHN renal and in the experiment on EKVX NSCLC was over 100 µM in each case. Further, the TGI with UO-31 renal, in the experiment on SN12C renal, in the experiment with COLO 205 colon and in the experiment on K-562 leukemia was over 100 µM throughout.
`CC(=O)CCC(=O)C(=[N+]=[N-])S(=O)(=O)c1ccccc1`: the TGI with OVCAR-3 ovarian, in the experiment on HL-60(TB) leukemia, in the experiment with MDA-MB-231 breast, in the experiment with SK-MEL-5 melanoma, in the experiment with RXF 393 renal and in the experiment with SF-539 CNS was over 100 µM each time. Also, the TGI with HCT-116 colon, in the experiment with KM12 colon, with HCT-15 colon, in the experiment on SF-268 CNS, with ACHN renal and in the experiment on EKVX NSCLC was over 100 µM each time. In addition, the TGI in the experiment on UO-31 renal, in the experiment with SN12C renal, in the experiment with LOX IMVI melanoma, in the experiment on COLO 205 colon and with K-562 leukemia was over 100 µM each time.
Regarding `c1cc(CSP234N5CCN2CCN3CCN4CC5)ccc1CSP123N4CCN1CCN2CCN3CC4`, the TGI with OVCAR-3 ovarian was over 100 µM; in the experiment with HL-60(TB) leukemia it was 79.8 µM; in the experiment with MDA-MB-231 breast, over 100 µM; in the experiment on SK-MEL-5 melanoma, over 100 µM; in the experiment on SF-539 CNS, over 100 µM; in the experiment with HCT-116 colon it was over 100 µM. Besides, the TGI in the experiment with KM12 colon, in the experiment on HCT-15 colon, in the experiment on SF-268 CNS, with CAKI-1 renal, in the experiment with ACHN renal and in the experiment on EKVX NSCLC was over 100 µM each time. For the same molecule, the TGI with UO-31 renal, with SN12C renal, in the experiment with LOX IMVI melanoma, in the experiment on COLO 205 colon and in the experiment with K-562 leukemia was over 100 µM in each case.
`C#CCOCn1ccc(=O)[nH]c1=O`: the TGI in the experiment on HL-60(TB) leukemia, with MDA-MB-231 breast, with SK-MEL-5 melanoma, with SF-539 CNS, with HCT-116 colon and in the experiment on KM12 colon was over 100 µM each time. The TGI with HCT-15 colon, with SF-268 CNS, in the experiment on CAKI-1 renal, with ACHN renal, in the experiment on EKVX NSCLC and with UO-31 renal was over 100 µM throughout. Also, the TGI in the experiment with SN12C renal, in the experiment on LOX IMVI melanoma, in the experiment with COLO 205 colon and in the experiment on K-562 leukemia was over 100 µM each time.
As to `c1ccc(-c2cs[s+]c2)cc1`, the TGI in the experiment on OVCAR-3 ovarian, in the experiment on HL-60(TB) leukemia, in the experiment with MDA-MB-231 breast, in the experiment with SK-MEL-5 melanoma, in the experiment on RXF 393 renal and in the experiment on HCT-116 colon was over 100 µM in each case. Further, the TGI with KM12 colon, in the experiment on HCT-15 colon, in the experiment with SF-268 CNS, with CAKI-1 renal, in the experiment on ACHN renal and with EKVX NSCLC was over 100 µM in each case. The TGI in the experiment on UO-31 renal, in the experiment on SN12C renal, in the experiment with LOX IMVI melanoma, in the experiment on COLO 205 colon and with K-562 leukemia was over 100 µM in each case.
As for `CC(C)(C)OC(=O)NC(Cc1ccc(OCc2ccccc2)cc1)C(=O)NC(CCCCNC(=O)OCc1ccccc1)C(=O)O` (stereo unspecified) (Boc-Tyr(Bn)-Lys(Cbz)-OH; configuration not given here), the TGI in the experiment on HL-60(TB) leukemia is 86.9 µM; in the experiment on MDA-MB-231 breast, over 100 µM; in the experiment on SK-MEL-5 melanoma, over 100 µM; in the experiment on RXF 393 renal it was over 100 µM; with HCT-116 colon it was over 100 µM; with KM12 colon, over 100 µM. Moreover, the TGI with EKVX NSCLC, in the experiment with UO-31 renal, in the experiment with SN12C renal, in the experiment with COLO 205 colon and with K-562 leukemia was over 100 µM each time.
As for `CCO[C@@H]1CCC(S(=O)c2ccc(C)cc2)=CO1` (stereo partly specified), the TGI in the experiment with OVCAR-3 ovarian, in the experiment with HL-60(TB) leukemia, in the experiment with MDA-MB-231 breast, in the experiment with SK-MEL-5 melanoma, in the experiment on RXF 393 renal and in the experiment with HCT-116 colon was over 100 µM in each case. In addition, the TGI in the experiment on KM12 colon, in the experiment with HCT-15 colon, with SF-268 CNS, in the experiment on CAKI-1 renal, in the experiment on ACHN renal and with EKVX NSCLC was over 100 µM throughout. Moreover, the TGI in the experiment with UO-31 renal, with SN12C renal, in the experiment on LOX IMVI melanoma, in the experiment with COLO 205 colon and with K-562 leukemia was over 100 µM in each case.
As to `CSc1nc(-c2ccc(C)cc2)c(C#N)c(=O)[nH]1`, the TGI with OVCAR-3 ovarian, in the experiment with HL-60(TB) leukemia, in the experiment with MDA-MB-231 breast, with SK-MEL-5 melanoma, in the experiment with RXF 393 renal and in the experiment on SF-539 CNS was over 100 µM each time. Further, the TGI with HCT-116 colon, in the experiment with KM12 colon, in the experiment with HCT-15 colon, with SF-268 CNS, in the experiment with CAKI-1 renal and in the experiment with ACHN renal was over 100 µM throughout. Also, the TGI in the experiment on EKVX NSCLC, with UO-31 renal, in the experiment on SN12C renal, in the experiment with COLO 205 colon and in the experiment on K-562 leukemia was over 100 µM throughout.
Turning to `O=C1NC(=S)NC(=O)C1C(c1ccc([N+](=O)[O-])cc1)C1C(=O)NC(=S)NC1=O`, the TGI in the experiment on OVCAR-3 ovarian, in the experiment on HL-60(TB) leukemia, in the experiment on MDA-MB-231 breast, with SK-MEL-5 melanoma, with RXF 393 renal and with HCT-116 colon was over 100 µM throughout. Moreover, the TGI with KM12 colon, in the experiment on HCT-15 colon, in the experiment on CAKI-1 renal, in the experiment with ACHN renal, with EKVX NSCLC and in the experiment with UO-31 renal was over 100 µM each time. Further, the TGI in the experiment on SN12C renal, in the experiment with LOX IMVI melanoma, with COLO 205 colon and in the experiment on K-562 leukemia was over 100 µM in each case.
`CC1=C(O)C(=O)C[C@]2(C)[C@H]3CC=C4[C@@H]5CC(C)(C)CC[C@@H]5C(=O)[C@H](O)[C@@]4(C)[C@]3(C)CC[C@@H]12`: the TGI in the experiment with OVCAR-3 ovarian was over 50 µM; with HL-60(TB) leukemia, over 50 µM; with MDA-MB-231 breast, over 50 µM; in the experiment on SK-MEL-5 melanoma, over 50 µM; with RXF 393 renal, 37.9 µM; in the experiment on SF-539 CNS, over 50 µM. The TGI in the experiment with HCT-116 colon, in the experiment on KM12 colon, in the experiment on HCT-15 colon, in the experiment on SF-268 CNS, in the experiment with CAKI-1 renal and with ACHN renal was over 50 µM throughout. Also, the TGI in the experiment on EKVX NSCLC, with UO-31 renal, in the experiment with SN12C renal and in the experiment on COLO 205 colon was over 50 µM each time.
For the molecule `Cc1cnc(/N=c2\sc(C)cn2-c2ncc(C)s2)s1`, the TGI in the experiment on OVCAR-3 ovarian, in the experiment with HL-60(TB) leukemia, in the experiment on MDA-MB-231 breast, with SK-MEL-5 melanoma, with RXF 393 renal and in the experiment on SF-539 CNS was over 100 µM each time. Moreover, the TGI in the experiment on HCT-116 colon, in the experiment on KM12 colon, with HCT-15 colon, with SF-268 CNS, in the experiment on ACHN renal and in the experiment on EKVX NSCLC was over 100 µM each time. The TGI in the experiment with UO-31 renal, in the experiment on SN12C renal, in the experiment on LOX IMVI melanoma, in the experiment on COLO 205 colon and in the experiment on K-562 leukemia was over 100 µM throughout.
Take `CCOC(=O)NC(C(=O)OCC)C(F)(F)F` (stereo unspecified): the TGI with OVCAR-3 ovarian is over 100 µM; with HL-60(TB) leukemia, 69.9 µM; with MDA-MB-231 breast it was over 100 µM; in the experiment on SK-MEL-5 melanoma it was over 100 µM; in the experiment with SF-539 CNS, over 100 µM; with HCT-116 colon, over 100 µM. In addition, the TGI in the experiment on KM12 colon, in the experiment with HCT-15 colon, with SF-268 CNS, in the experiment on CAKI-1 renal, in the experiment with ACHN renal and in the experiment with EKVX NSCLC was over 100 µM throughout. The TGI with UO-31 renal, in the experiment on SN12C renal, in the experiment on LOX IMVI melanoma, in the experiment on COLO 205 colon and with K-562 leukemia was over 100 µM throughout.
`N#CCCSC1SC(=C2SC3=C(SCCS3)S2)SC1SCCC#N` (stereo unspecified): the TGI in the experiment on OVCAR-3 ovarian, in the experiment with HL-60(TB) leukemia, with MDA-MB-231 breast, in the experiment with SK-MEL-5 melanoma, in the experiment with RXF 393 renal and with SF-539 CNS was over 100 µM in each case. The TGI in the experiment with HCT-116 colon, in the experiment on HCT-15 colon, in the experiment with SF-268 CNS, with CAKI-1 renal, with ACHN renal and in the experiment with EKVX NSCLC was over 100 µM in each case. In addition, the TGI in the experiment with UO-31 renal, in the experiment with SN12C renal, in the experiment on LOX IMVI melanoma, in the experiment on COLO 205 colon and with K-562 leukemia was over 100 µM throughout.
